Experiments:
Pythium ultimum = assay: Supplementary ex vivo determination of antifungal activity; format: cell-based; details: compared with carbendazim
Protocol: (§1) The inhibition of samples for testing on the mycelial growth of plant pathogenic fungi for testing is determined with a growth rate method. 3-(3',4'-methylenedioxy phenyl)-N-n-propyl acrylamide, 3-(3',4'-methylenedioxy phenyl)-piperidine acrylate and five control agents are dissolved with dimethyl sulfoxide (DMSO), then formulated at 5-7 concentrations of different gradients for test following the trial test results, with the same concentration of DMSO as the control solvent, each treatment in triplicate. Fungal cakes with a diameter of 4 mm are taken from the edge of the colony, inoculated into the center of a PDA plate containing different agents of different concentrations and the DMSO control, with one piece of fungal cake inoculated in each plate (with a diameter of […]), and incubated in a constant temperature incubator at a temperature of 22±1.5°C. 7 days later (10-20 days may be needed for some pathogenic fungi), the diameter of the colony is measured with a cross over method according to the mycelial growth profile of the control pathogenic fungi, then the inhibition rate of mycelial growth is calculated.

[1] = tested on: Blumeria graminis f.sp.tritici; assay: In-vivo greenhouse control of wheat powdery mildew; details: winter wheat, 0.20 mg/mL (active ingredients), application from early onset
Protocol: 3.88 g of 3-(3',4'-methylenedioxy phenyl)-N-n-propyl acrylamide was weighed and dissolved in 25 g of absolute ethyl alcohol, then 6 g of emulsifier 0203B was added, and mixed uniformly with stirring to get 10% of 3-(3',4'-methylenedioxy phenyl)-N-n-propyl acrylamide EC.
5.61 g of 3-(3',4'-methylenedioxy phenyl)-piperidine acrylate was weighed and dissolved in 25 g of absolute ethyl alcohol, then 6 g of emulsifier 0203B was added, and mixed uniformly with stirring to get 14% of 3-(3',4'-methylenedioxy phenyl)-piperidine acrylate EC.
Winter wheat (Variety: Huixian Red) was sown in pots in a greenhouse, and inoculated with a fresh spore suspension of Blumeria graminis f.sp.tritici by spraying on its leaves and stems at the stage of 2 leaves. The first application was started at the early onset of powdery mildew. Both sides of the leaves were sprayed evenly with a small hand-held sprayer so that the leaves were wetted by the liquor without loss. 10% of 3-(3',4'-methylenedioxy phenyl)-N-n-propyl acrylamide EC and 14% of 3-(3',4'-methylenedioxy phenyl)-piperidine acrylate EC were both diluted at two concentrations of 0.20 and 0.143 mg/mL (active ingredients), and the control agent, 15% of triazolone WP, was also diluted at two concentrations of 0.20 and 0.143 mg/mL (active ingredients), additionally clear water was used as the control. […]

Fusarium graminearum = assay: microbe, parasite or virus in culture; format: cell-based; details: for Average Diameter of the Colony: 1 mg/mL; for inhibition at 1000 µg/mL: read-out: Inhibition Rate
[2] = tested on: Botryosphaeriana berengeriana; assay: Ex vivo mycelial growth inhibition, growth rate method; format: cell-based; details: 1 mg/mL
Source text: (§2) 3-(3',4'-methylenedioxy phenyl)-N-n-propyl acrylamide (at a purity of 99%), 3-(3',4'-methylenedioxy phenyl)-piperidine acrylate (at a purity of 99%), the control agents, 96.5% of chlorothalonil technical (non-systemic broad-spectrum fungicide), 97.2% of carbendazim technical (systemic broad-spectrum fungicide), 97.0% of procymidone technical (systemic fungicide), 96.0% of dimethomorphtechnical ((E,Z)-4-[3-(4-chlorphenyl)3-(3,4-dimethoxy phenyl)acryloyl]morpholine, systemic fungicide), 97.0% of azoxystrobin technical (systemic broad-spectrum fungicide).
as §1
(§3) The computational formula is as below: the inhibition rate of mycelial growth (%) = [(the diameter of the control colony - the diameter of the treated colony)/the diameter of the control colony] × 100.
(§4) The inhibition results of each agent at a concentration of 1 mg/mL on the mycelial growth of plant pathogenic fungi are shown in Tables 1 and 2.

[3] = tested on: F. oxysporum f. sp. vasinfectum; assay: as above; format: cell-based; details: 1 mg/mL; for inhibition at 1000 µg/mL: Fusarium oxysporum
Source text: as §2, §1, §3, §4

Coniella diplodiella = assay: as above; format: cell-based; details: 1 mg/mL
Source text: as §2, §1, §3, §4

Botrytis cinerea = assay: as above; format: cell-based; details: 1 mg/mL
Source text: as §2, §1, §3, §4

Thanatephorus cucumeris = assay: as above; format: cell-based; details: 1 mg/mL
Source text: as §2, §1, §3, §4

C. gossypii = assay: as above; format: cell-based; details: 1 mg/mL; for Average Diameter of the Colony: C. gossypii; for inhibition at 1000 µg/mL: Colletotrichum gossypii, C. cossypii, read-out: Inhibition Rate
Source text: as §2, §1, §3, §4

F. oxysporum f. sp. lini = assay: as above; format: cell-based; details: 1 mg/mL; for inhibition at 1000 µg/mL: Fusarium oxysporum
Source text: as §2, §1, §3, §4

Sclerotinia sclerotiorum = assay: as above; format: cell-based; details: 1 mg/mL
Source text: as §2, §1, §3, §4

[4] = tested on: Botryosphaeria berengeriana; assay: as above; format: cell-based; details: 1 mg/mL
Source text: as §2, §1, §3, §4

[5] = tested on: Gaeumannomyces graminis var. graminis and G. graminis var. tritici; assay: as above; format: cell-based; details: 1 mg/mL
Source text: as §2, §1, §3, §4

F. verticillioide = assay: as above; format: cell-based; details: 1 mg/mL
Source text: as §2, §1, §3, §4

Rhizoctonia solani = assay: as above; format: cell-based; details: for Average Diameter of the Colony / inhibition at 1000 µg/mL: Rhizoctonia solani, 1 mg/mL
Source text: as §2, §1, §3, §4

Exserohilum turcicum = assay: as above; format: cell-based; details: 1 mg/mL
Source text: as §2, §1, §3, §4

Pythium aphanidermatum = assay: as above; format: cell-based; details: 1 mg/mL
Source text: as §2, §1, §3, §4

Mycosphaerlla melonis = assay: as above; format: cell-based; details: 1 mg/mL
Source text: as §2, §1, §3, §4

Colletotrichum capsici = assay: as above; format: cell-based; details: 1 mg/mL; for inhibition at 1000 µg/mL: Colletotrichum truncatum
Source text: as §2, §1, §3, §4

Phytophthora capsici = assay: as above; format: cell-based; details: for Average Diameter of the Colony / inhibition at 1000 µg/mL: Phytophthora capsici, 1 mg/mL; for antifungal activity against Phytophthora capsici: supplementary determination, compared with hymexazol
Source text: as §2, §1, §3, §4

Valsa mali = assay: as above; format: cell-based; details: 1 mg/mL; for inhibition at 1000 µg/mL: Cytospora mali
Source text: as §2, §1, §3, §4

Phytophthora infestans = format: cell-based; details: Phytophthora infestas; 1 mg/mL

O=C(/C=C/c1ccc2c(c1)OCO2)N1CCCCC1 [3-(3',4'-methylenedioxyphenyl)-piperidine acrylate]
antifungal activity against Pythium ultimum (Pythium ultimum): superior to that of the control agent, carbendazim
Control Effect [1]: 59.11%
Average Diameter of the Colony (Fusarium graminearum): 0.53 cm
inhibition at 1000 µg/mL (Fusarium graminearum): 90.1%
Average Diameter of the Colony [2]: 0.14 cm
inhibition at 1000 µg/mL [2]: 97.5%
Average Diameter of the Colony [3]: 0.40 cm
inhibition at 1000 µg/mL [3]: 94.5%
Average Diameter of the Colony (Coniella diplodiella): 0.00 cm
inhibition at 1000 µg/mL (Coniella diplodiella): 100%
Average Diameter of the Colony (Botrytis cinerea): 0.25 cm
inhibition at 1000 µg/mL (Botrytis cinerea): 96.7%
Average Diameter of the Colony (Thanatephorus cucumeris): 0.00 cm
inhibition at 1000 µg/mL (Thanatephorus cucumeris): 100%
Average Diameter of the Colony (C. gossypii): 0.10 cm
inhibition at 1000 µg/mL (C. gossypii): 98.2%
Average Diameter of the Colony (F. oxysporum f. sp. lini): 2.73 cm
inhibition at 1000 µg/mL (F. oxysporum f. sp. lini): 69.7%
Average Diameter of the Colony (Sclerotinia sclerotiorum): 0.00 cm
inhibition at 1000 µg/mL (Sclerotinia sclerotiorum): 100%
Average Diameter of the Colony [4]: 0.22 cm
inhibition at 1000 µg/mL [4]: 96.8%
Average Diameter of the Colony [5]: 0.39 cm
inhibition at 1000 µg/mL [5]: 94.5%
Average Diameter of the Colony (F. verticillioide): 0.49 cm
inhibition at 1000 µg/mL (F. verticillioide): 85.5%
Average Diameter of the Colony (Rhizoctonia solani): 0.00 cm
inhibition at 1000 µg/mL (Rhizoctonia solani): 100%
antifungal activity against Rhizoctonia solani (Rhizoctonia solani; supplementary determination, compared with chlorothalonil, dimethomorph and azoxystrobin): superior to that of chlorothalonil, dimethomorph and azoxystrobin
Average Diameter of the Colony (Exserohilum turcicum): 0.34 cm
inhibition at 1000 µg/mL (Exserohilum turcicum): 94.5%
Average Diameter of the Colony (Pythium aphanidermatum): 0.06 cm
inhibition at 1000 µg/mL (Pythium aphanidermatum): 99.1%
Average Diameter of the Colony (Mycosphaerlla melonis): 0.00 cm
inhibition at 1000 µg/mL (Mycosphaerlla melonis): 100%
Average Diameter of the Colony (Colletotrichum capsici): 0.28 cm
inhibition at 1000 µg/mL (Colletotrichum capsici): 95.9%
Average Diameter of the Colony (Phytophthora capsici): 0.00 cm
inhibition at 1000 µg/mL (Phytophthora capsici): 100%
antifungal activity against Phytophthora capsici (Phytophthora capsici): superior to that of the control agent, hymexazol
Average Diameter of the Colony (Valsa mali): 0.00 cm
inhibition at 1000 µg/mL (Valsa mali): 100%
Average Diameter of the Colony (Phytophthora infestans): 0.81 cm

CCCNC(=O)/C=C/c1ccc2c(c1)OCO2 [3-(3',4'-methylenedioxyphenyl)-N-n-propyl acrylamide]
antifungal activity against Pythium ultimum (Pythium ultimum): superior to that of the control agent, carbendazim
Control Effect [1]: 86.97%
Average Diameter of the Colony (Fusarium graminearum): 2.27 cm
inhibition at 1000 µg/mL (Fusarium graminearum): 57.6%
Average Diameter of the Colony [2]: 4.63 cm
inhibition at 1000 µg/mL [2]: 18.8%
Average Diameter of the Colony [3]: 3.03 cm
inhibition at 1000 µg/mL [3]: 58.1%
Average Diameter of the Colony (Coniella diplodiella): 0.00 cm
inhibition at 1000 µg/mL (Coniella diplodiella): 100%
Average Diameter of the Colony (Botrytis cinerea): 1.35 cm
inhibition at 1000 µg/mL (Botrytis cinerea): 82%
Average Diameter of the Colony (Thanatephorus cucumeris): 3.51 cm
inhibition at 1000 µg/mL (Thanatephorus cucumeris): 59.2%
Average Diameter of the Colony (C. gossypii): 1.74 cm
inhibition at 1000 µg/mL (C. gossypii): 67.8%
Average Diameter of the Colony (F. oxysporum f. sp. lini): 6.30 cm
inhibition at 1000 µg/mL (F. oxysporum f. sp. lini): 30%
Average Diameter of the Colony (Sclerotinia sclerotiorum): 3.28 cm
inhibition at 1000 µg/mL (Sclerotinia sclerotiorum): 61.9%
Average Diameter of the Colony [4]: 3.60 cm
inhibition at 1000 µg/mL [4]: 47.1%
Average Diameter of the Colony [5]: 3.05 cm
inhibition at 1000 µg/mL [5]: 57.3%
Average Diameter of the Colony (F. verticillioide): 2.94 cm
inhibition at 1000 µg/mL (F. verticillioide): 13%
Average Diameter of the Colony (Rhizoctonia solani): 0.25 cm
inhibition at 1000 µg/mL (Rhizoctonia solani): 96.5%
Average Diameter of the Colony (Exserohilum turcicum): 1.44 cm
inhibition at 1000 µg/mL (Exserohilum turcicum): 76.8%
Average Diameter of the Colony (Pythium aphanidermatum): 0.21 cm
inhibition at 1000 µg/mL (Pythium aphanidermatum): 96.9%
Average Diameter of the Colony (Mycosphaerlla melonis): 0.58 cm
inhibition at 1000 µg/mL (Mycosphaerlla melonis): 93.3%
Average Diameter of the Colony (Colletotrichum capsici): 1.66 cm
inhibition at 1000 µg/mL (Colletotrichum capsici): 75.5%
Average Diameter of the Colony (Phytophthora capsici): 0.65 cm
inhibition at 1000 µg/mL (Phytophthora capsici): 87.7%
antifungal activity against Phytophthora capsici (Phytophthora capsici): superior to that of the control agent, hymexazol
Average Diameter of the Colony (Valsa mali): 0.65 cm
inhibition at 1000 µg/mL (Valsa mali): 91.8%
Average Diameter of the Colony (Phytophthora infestans): 2.05 cm

— patent publication EP3818828A1 (priority 2019, dated 2021)
